In ChEMBL document CHEMBL5252620, “Introducing Conformational Restraints on 25CN-NBOH: A Selective 5-HT2A Receptor Agonist” (ACS Med Chem Lett, 2023):
Several values for one entry are separate records, joined by “and”; a condition that tells them apart may be missing. Identical values can stand only once. Activity calls are given as the source filed them. The calls are words filed in the database; no cut-off is given here.

How the values were obtained:
[1] = target: 5-hydroxytryptamine receptor 2A (Homo sapiens, UniProt P28223); test: Agonist activity at 5-HT2AR (unknown origin) stably expressed in HEK293 cells measured after 1 hr by fluorescence based Ca2+/Fluo-4 assay; assay type: cell-based
Sequence of 5-hydroxytryptamine receptor 2A (P28223 whole entry): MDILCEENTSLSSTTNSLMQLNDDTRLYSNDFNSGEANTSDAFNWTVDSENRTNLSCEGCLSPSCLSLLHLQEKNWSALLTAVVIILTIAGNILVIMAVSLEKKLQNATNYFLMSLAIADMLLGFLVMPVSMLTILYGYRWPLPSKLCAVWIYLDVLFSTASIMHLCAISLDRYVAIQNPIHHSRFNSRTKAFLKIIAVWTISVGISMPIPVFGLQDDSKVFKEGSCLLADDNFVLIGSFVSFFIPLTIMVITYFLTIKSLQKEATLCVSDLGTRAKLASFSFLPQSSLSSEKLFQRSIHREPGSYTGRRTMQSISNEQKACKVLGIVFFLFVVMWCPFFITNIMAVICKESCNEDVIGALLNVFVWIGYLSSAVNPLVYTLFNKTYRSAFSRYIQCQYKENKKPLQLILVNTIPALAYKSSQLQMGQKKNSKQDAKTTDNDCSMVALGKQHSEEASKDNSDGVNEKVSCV

[2] = target: T1, 5-hydroxytryptamine receptor 2C (Homo sapiens) (UniProt P28335); test: Agonist activity at 5-HT2CR (unknown origin) stably expressed in HEK293 cells at 10 to 100 uM measured after 1 hr by fluorescence based Ca2+/Fluo-4 assay; assay type: cell-based; details: filed as agonist, dose 10-100 µM
T1 sequence (whole entry): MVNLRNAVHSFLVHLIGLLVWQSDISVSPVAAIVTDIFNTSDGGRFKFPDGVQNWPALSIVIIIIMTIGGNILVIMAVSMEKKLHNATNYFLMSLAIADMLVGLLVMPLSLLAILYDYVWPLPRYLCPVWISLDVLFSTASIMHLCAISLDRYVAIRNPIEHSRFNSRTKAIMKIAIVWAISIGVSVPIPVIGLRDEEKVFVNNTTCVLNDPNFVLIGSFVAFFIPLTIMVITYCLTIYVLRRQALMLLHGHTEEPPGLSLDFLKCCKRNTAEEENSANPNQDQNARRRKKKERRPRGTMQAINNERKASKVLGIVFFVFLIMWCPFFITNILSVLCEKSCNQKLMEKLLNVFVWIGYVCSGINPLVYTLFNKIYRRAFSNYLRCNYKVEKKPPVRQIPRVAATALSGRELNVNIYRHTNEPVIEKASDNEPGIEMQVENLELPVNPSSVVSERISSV

[3] = target: T1, 5-hydroxytryptamine receptor 2C (Homo sapiens); test: Agonist activity at 5-HT2CR (unknown origin) stably expressed in HEK293 cells assessed as maximal response measured after 1 hr by fluorescence based Ca2+/Fluo-4 assay relative to control; assay type: cell-based; details: filed as agonist
[4] = target: T2, 5-hydroxytryptamine receptor 2C (Homo sapiens, UniProt P28335)
T2 sequence (P28335 whole entry): T1 sequence (whole entry)
Description: Agonist activity at 5-HT2CR (unknown origin) stably expressed in HEK293 cells measured after 1 hr by fluorescence based Ca2+/Fluo-4 assay

[5] = target: T1, 5-hydroxytryptamine receptor 2C (Homo sapiens); test: Agonist activity at 5-HT2CR (unknown origin) stably expressed in HEK293 cells at 30 to 100 uM measured after 1 hr by fluorescence based Ca2+/Fluo-4 assay; assay type: cell-based; details: filed as agonist, dose 30-100 µM

| SMILES | EC50 ([1]; read-out: EC50) | Activity [2] | Rmax [3] | EC50 [4] | EC50 ([1]; read-out: pEC50 (converted)) | Activity [5] |
| --- | --- | --- | --- | --- | --- | --- |
| COc1cc(C[C@H]2CCC[C@H](c3ccccc3O)N2)c(OC)cc1C#N | 930 nM | Active | – | – | – | – |
| COc1cc(CCNCc2ccccc2O)c(OC)cc1C#N | – | – | 78% | 178 nM and 170 nM | – | – |
| COc1cc(C[C@@H]2CCC[C@@H](c3ccccc3O)N2)c(OC)cc1C#N | 91 nM | Active | – | – | – | – |
| COc1cc(CC2CCCC(c3ccccc3O)N2)c(OC)cc1C#N (centres undefined) | 2700 nM | – | – | – | 3550 nM | Active |
